The results in this text go back to paper PMC12040169 (PLOS Biology, 2025).

The data set is described as follows: in vitro. Particulars: human, hela cells, % viability.

Usually viability stands for a read-out of living cells in per cent, often relative to untreated cells. On to `COc1ccc(-c2cnc(N)c(-c3ccc(C=O)cc3)n2)cn1` [CBK064096], for which the viability at 28.5 h, 10 µM was found to be 90.8%. Regarding `Nc1nnc(-c2ccc(Cl)cc2)[nH]1` [CBK025436], the viability at 28.5 h, 10 µM worked out at 118%. The same measure, in the same setting: then `CC(=O)N1CCCc2cc(C(O)CN3CCCC(C)(C)C3)ccc21` (centres unmarked) [CBK282143], with 94.3%; and `O=C(N/C(=C/c1ccccc1)C(=O)N1CCCCC1)c1ccccc1` [CBK261280], with 94.7%; and `CCOC(=O)C1CCCN(c2c(C#N)cnc3ccc(Cl)cc23)C1` (centres unmarked) [CBK304405], with 85.8%. Same read-out and setting: the figure for `COc1ccc(-n2c(C)c([N+](=O)[O-])c3ccc(O)c(CNCCCO)c32)cc1` [CBK263504C] is 88.4%. On to `O=C(N[C@H]1C[C@@H]2C(=O)N[C@H]3CCN(C(=O)Cc4cccs4)[C@@H]3C(=O)N2C1)C1CCC1` [CBK289269], for which the viability at 28.5 h, 10 µM was found to be 117%. Turning to `Fc1ccc(CNc2c(-c3ccco3)nc3cnccn23)cc1` [CBK283694], the viability at 28.5 h, 10 µM is 92%. Turning to `O=C(c1ccccc1)N1CCC(c2cccc(Cc3ccccc3Cl)n2)CC1` [CBK286085], the viability at 28.5 h, 10 µM is 88.2%. Regarding `COc1cc(NC(=O)Nc2ccc3c(c2)COC2(CCNCC2)O3)cc(OC)c1OC` [CBK091530T], under “bulk resorufin, single well”, the viability at 28.5 h, 10 µM came out at 94.9%. `COc1cccc(C2(NC(=O)c3cnsc3)CCCC2)c1` [CBK283611]: the viability at 28.5 h, 10 µM turned out to be 94.9%. Consider `O=S(=O)(/C=C/c1ccccc1)Nc1cccc2cc[nH]c12` [CBK155788], for which the viability at 28.5 h, 10 µM stood at 82.7%. Regarding `c1ccc2c(c1)CCN2c1ncnc2[nH]cnc12` [CBK291104], the viability at 28.5 h, 10 µM was found to be 100%. Turning to `c1ccc(CCNc2nccnc2-c2ccoc2)nc1` [CBK036790], the viability at 28.5 h, 10 µM was 86.1%. Take `Cc1ccc(S(=O)(=O)N(CC(=O)NCC2CCCO2)c2cccc(C)c2C)cc1` (centres unmarked) [CBK265339]: the viability at 28.5 h, 10 µM is 72.7%. On the same count and under the same terms, then `Nc1nc(CN2C(=O)c3ccccc3C2=O)n[nH]1` [CBK266655], with 105%; and `COc1cc(NC(=O)C2CCN(S(=O)(=O)c3cccs3)CC2)c(Cl)cc1C(=O)O` [CBK297085], with 99.7%. The same measure, in the same setting: the figure for `CCOc1ccc(NC(=O)C(=O)NC2CCCCC2)cc1` [CBK261822] is 105%; for `FC(F)(F)c1ccc2c(c1)nc(S)n2C1CC1` [CBK288483] it is 86.2%. In the case of `C=C(C)CNC(=O)c1ccc(C)nc1N1CCOCC1` [CBK076389], the viability at 28.5 h, 10 µM stood at 93.5%. For the molecule `Nc1n[nH]c2nc(-c3ccccc3)c3c(c12)CCC3` [CBK288178], the viability at 28.5 h, 10 µM was 88.8%.

Take `CC(C)N1CCC[C@@H]2CN(C(=O)c3cccc(C(F)(F)F)c3)C[C@@H]21` [CBK285525]: the viability at 28.5 h, 10 µM was found to be 96%. Regarding `CC(=O)Nc1ccc(-n2cc(COC3CCN(C(=O)OC(C)(C)C)CC3)nn2)cc1` [CBK149481], the viability at 28.5 h, 10 µM worked out at 121%. On the same count and under the same terms, then `O=C(c1cccc(NS(=O)(=O)c2cc(F)c(Br)cc2F)c1)N1CCOCC1` [CBK039007], with 86.7%; and `Cc1csc(NC(=O)CN2CCC(c3ccc(F)cc3)CC2)n1` [CBK283567], with 94.2%; and `CCC(=O)Oc1ccc(/N=C2/NC(C)(C)O2)cc1` [CBK010922], with 87.6%. With `CS(=O)(=O)N1CC2(CCN(C(=O)[C@@H]3CNC[C@H]3c3ccccc3)CC2)c2ccccc21` [CBK022572], the viability at 28.5 h, 10 µM turned out to be 104%. As to `CN1CCN(c2cc(N)nc(N)n2)CC1` [CBK266102], the viability at 28.5 h, 10 µM was found to be 107%. Regarding `O=S(=O)(Cc1cccc(C(F)(F)F)c1)c1csc2ccnc(N3CCNCC3)c12` [CBK039166C], the viability at 28.5 h, 10 µM was determined as 92%. Still for that read-out and setting: then `Cc1cc2c(cc1C)NC(CC(=O)Nc1ccc(N(C)C)cc1)C(=O)N2` (centres unmarked) [CBK265595], with 85.8%. For the molecule `O=C(NCc1ccncc1)C1CCCN(c2nc3c(-c4ccccc4)csc3c(=O)[nH]2)C1` (centres unmarked) [CBK215493], the viability at 28.5 h, 10 µM turned out to be 107%. The same measure, in the same setting: the figure for `Cc1cc(Cl)c(OCCN2CCC(C)CC2)c(Br)c1` [CBK265088G] is 78.3%.
